# Results published in patent US5064862A, “Anticonvulsant method and formulations” (priority 1990, dated 1991).
# “And” between values parts separate entries of the source, which are not always exact repeats. Identical values can stand only once. “Also recorded” adds a separate entry of the source. Like-named read-outs stand apart in the source and are kept apart here.
# Assays:
# [1] = tested on: subcutaneous Metrazole (scMet) induced convulsions; settings: cited from earlier work
# [2] = tested on: maximal electroshock seizures (MES); settings: cited from earlier work;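 for animals with anti-MES activity at 5 mg/kg: seizures induced by corneal electroshock, 60-cycle alternating current at 50 mA for 0.2 s, protection means no hind limb tonic extension, scored right after the shock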;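 for safety ratio (SR=TD3/ED97), MES test: seizures induced by corneal electroshock, 60-cycle alternating current at 50 mA for 0.2 s, protection means no hind limb tonic extension, scored right after the shock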
# [3] = tested on: maximal electroshock seizures (MES);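 for animals with anti-MES activity at 5 mg/kg: seizures induced by corneal electroshock, 60-cycle alternating current at 50 mA for 0.2 s, protection means no hind limb tonic extension, scored right after the shock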;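 for safety ratio (SR=TD3/ED97), MES test: seizures induced by corneal electroshock, 60-cycle alternating current at 50 mA for 0.2 s, protection means no hind limb tonic extension, scored right after the shock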
# Protocol: The preliminary screening was done at doses of the test compounds from 30 mg/kg up to 600 mg/kg adminstered ip in mice and evaluated against maximal electroshock seizures (MES) and subcutaneous Metrazole (scMet) induced convulsions and in the rotorod test for neurologic deficit.
# (§1) All tests were performed using male Carworth Farms number-one mice. Test solutions of all compounds were prepared in 30% polyethylene glycol 400 and animals were dosed intraperitoneally (ip) at 30 minutes prior to testing.
# Maximal electroshock seizures (MES) were elicited with a 60 cycle alternating current of 50 mA intensity delivered for 0.2 second via corneal electrodes. A drop of 0.9% saline was instilled in the eye prior to application of electrodes. The animals were examined and evaluated immediately after the electroshock for the occurrence of clonic, flexor tonic, or extensor tonic convulsions or death. Abolition of the hind limb tonic extension component of the seizure was defined as protection in the MES test. The ED50 was determined for the test compound as the dose which inhibited the occurrence of hind limb tonic convulsions in one half of the animals immediately after the electroshock as determined by graphical interpolation.
# (§2) Neurological deficit was measured in mice using the rotorod test. The dosed animal was placed on a 1-inch diameter knurled plastic rod rotating at 6 rpm. Neurologic toxicity was defined as the failure of the animal to remain on the rod for 1 minute. The median anticonvulsant protency (ED50) and toxicity (TD50) were determined by the graphical method.
# in vivo [4] = settings: mouse, ip
# Protocol: as §1
# [5] = tested on: subcutaneous Metrazole (scMet) induced convulsions; experiment: Subcutaneous pentylenetetrazole (Metrazol) seizure threshold test (scMet) in mice, ip; settings: for minimal effective dose / ED50: Mus musculus; for ED50: read-out: scMET ED50
# Protocol: Protection in this test was defined as a failure to observe a single episode of clonic spasms of at least 5 second duration during a 30 minute period following adminstration of the test compound.
# [6] = tested on: neurologic deficit (rotorod); settings: mouse, in vivo
# Protocol: as §1, §2
# [7] = tested on: convulsions induced by sc bicuculline; experiment: sc bicuculline induced seizures in mice; assay type: in vivo; settings: doses up to 30 mg/kg
# [8] = tested on: convulsions induced by sc picrotoxin; experiment: sc picrotoxin induced seizures in mice; assay type: in vivo; settings: doses up to 30 mg/kg
# [9] = tested on: neurologic deficit (rotorod); experiment: Rotorod test for neurologic deficit in mice, ip
# Protocol: as §1, §2
# [10] = tested on: convulsions induced by sc strychnine; experiment: sc strychnine induced seizures in mice; assay type: in vivo; settings: doses up to 30 mg/kg
# in vivo [11] = settings: mouse, ip; remark: listed apart in the source
# Protocol: as §1, §2
# [12] = man; cited from earlier work
# [13] = ip, 0.5 h, read-out: scMet activity, 30 min
# [14] = ip, 4 h, read-out: scMet activity, 4 hrs
# [15] = previous studies by Clark et al.
structure (smiles),measurement,setting,value
CC(NC(=O)c1ccc(N)cc1)c1ccccc1 (stereo not drawn) [Compound 14],scMET ED50,"[1]; Clark et al, ip, mice",41.78 mg/kg
same,scMET PI (TD50/ED50),"[1]; Clark et al, ip, mice",4.10
same,lethal dose (LD50),"ip, mice",718.18 mg/kg
same,MES ED50,"[2]; Clark et al, ip, mice",18.02 mg/kg
same,MES PI (TD50/ED50),"[2]; Clark et al, ip, mice",9.50
same,"safety ratio (SR=TD3/ED97), MES test","[3]; mouse, in vivo, ip",3.5
"Cc1cccc(C)c1NC(=O)c1ccc(N)cc1 [Example 1, 4-Amino-N-(2,6-dimethylphenyl) benzamide]",additional toxicity at higher doses,"2×TD50 and 4×TD50, ip, mice","muscle relaxation, loss of righting reflex, decreased respiration with cyanosis and ptosis"
same,toxicity induced by the TD50 dose,"TD50 dose, ip, mice","decreased motor activity, spasticity, ataxia, rotorod toxicity and sedation"
same,time after which all symptoms had disappeared,"mouse, in vivo, ip",≤ 2 h
same,LD50,in vivo [4],161 mg/kg
same,TD50,in vivo [4],43.8 mg/kg
same,"anti-scMet activity (in words), 30 min","[5]; 30 minutes, ip, mice",No anti-scMet activity
same,"anti-scMet activity (in words), 4 hours","[5]; 4 hours, ip, mice",No anti-scMet activity
same,minimal effective dose,[5]; [13],> 300 mg/kg
same,minimal effective dose,[5]; [14],> 300 mg/kg
same,effect against convulsions induced by sc metrazole,"[5]; doses up to 30 mg/kg, mice",ineffective
same,anti-scMet activity (in words),"[5]; ip, mice",absent
same,animals with rotorod toxicity at 20 mg/kg,[6],3 of 4
same,animals with rotorod toxicity at 30 mg/kg,[6],all aminals
same,increase in toxicity over compound 14,[6],~10 fold
same,time of peak effect for toxicity,[6],30 min
same,"rotorod toxicity, dose, 30 min","[6]; ip, 30 min",30 mg/kg
same,"rotorod toxicity, dose, 4 hours","[6]; ip, 240 min",100 mg/kg
same,effect against convulsions induced by sc bicuculline,[7],ineffective
same,effect against convulsions induced by sc picrotoxin,[8],ineffective
same,toxicity (in words),[9],most toxic
same,effect against convulsions induced by sc strychnine,[10],ineffective
same,animals with anti-MES activity at 5 mg/kg,"[3]; 5 mg/kg, 30 minutes, ip",4 of 4
same,animals with anti-MES activity at 30 mg/kg,"[3]; ip, mice",all aminals
same,"anti-MES activity, active dose, 4 hours","[3]; 4 hours after ip administration, mice",30 mg/kg
same,MES ED50,"[3]; ip, mice",2.60 mg/kg and 2.6 mg/kg
same,anti-MES / anticonvulsant activity (in words),"[3]; ip, mice",good anti-MES activity; also recorded: most potent amide of PABA observed thus far; also recorded: greater potency than any of the prototype anticonvulsant
same,increase in anti-MES activity over compound 14,[3]; mice,~10 fold
same,time of peak effect for anti-MES activity,[3]; mice,30 min
same,PI values (in words),"[3]; mouse, in vivo, ip",higher PI values
Nc1ccc(C(=O)Nc2ccccc2)cc1 [Example 2],activity against scMet induced convulsions (dose range),[1]; [15],~50 mg/kg
same,minimal effective dose,[5]; [13],100 mg/kg
same,minimal effective dose,[5]; [14],> 600 mg/kg
same,scMET PI (protective index = TD50/ED50),"[5]; ip, mice",1.88
same,activity against MES induced convulsions (dose range),[2]; [15],~50 mg/kg
same,MES PI (protective index = TD50/ED50),"[3]; mouse, in vivo, ip",2.20
"Cc1ccccc1NC(=O)c1ccc(N)cc1 [Example 3, 4-amino-N-(2-methylphenyl) benzamide]",LD50,in vivo [4],< 600 mg/kg
same,minimal effective dose,[5]; [13],> 300 mg/kg
same,minimal effective dose,[5]; [14],> 300 mg/kg
Cc1cccc(NC(=O)c2ccc(N)cc2)c1 [Example 4],minimal effective dose,[5]; [13],300 mg/kg
same,minimal effective dose,[5]; [14],> 600 mg/kg
same,ED50,[5]; ip,87.9 mg/kg
same,scMET PI (protective index = TD50/ED50),"[5]; ip, mice",1.62
same,TD50,[6]; ip,142.51 mg/kg
same,MES ED50,"[3]; ip, mice",46.96 mg/kg
same,difference between the dosages producing toxicity and anti-MES activity,"[3]; ip, mice",appreciable difference between the dosages producing toxicity and anti-MES activity
same,MES PI (protective index = TD50/ED50),"[3]; mouse, in vivo, ip",3.03
"Cc1ccc(NC(=O)c2ccc(N)cc2)cc1 [Example 5, 4-amino-N-(4-methylphenyl) benzamide]",minimal effective dose,[5]; [13],30 mg/kg
same,minimal effective dose,[5]; [14],> 600 mg/kg
Cc1cccc(NC(=O)c2ccc(N)cc2)c1C [Example 6],LD50,in vivo [4],< 600 mg/kg
same,minimal effective dose,[5]; [13],100 mg/kg
same,minimal effective dose,[5]; [14],> 300 mg/kg
same,TD50,[6]; ip,103.90 mg/kg
same,animals with anti-MES activity at 30 mg/kg,"[3]; ip, mice",approximately half the animals
same,MES ED50,"[3]; ip, mice",25.25 mg/kg
same,PI values (in words),"[3]; ip, mice",higher PI values
same,anti-MES / anticonvulsant activity (in words),"[3]; ip, mice",good anti-MES activity
same,MES PI (protective index = TD50/ED50),"[3]; mouse, in vivo, ip",4.11
Cc1ccc(NC(=O)c2ccc(N)cc2)c(C)c1 [Example 7],minimal effective dose,[5]; [13],600 mg/kg
same,minimal effective dose,[5]; [14],> 600 mg/kg
same,anti-MES / anticonvulsant activity (in words),"[3]; ip, mice",good anti-MES activity
Cc1ccc(C)c(NC(=O)c2ccc(N)cc2)c1 [Example 8],minimal effective dose,[5]; [13],300 mg/kg
same,minimal effective dose,[5]; [14],> 600 mg/kg
same,anti-MES / anticonvulsant activity (in words),"[3]; ip, mice",good anti-MES activity
Cc1ccc(NC(=O)c2ccc(N)cc2)cc1C [Example 9],minimal effective dose,[5]; [13],300 mg/kg
same,minimal effective dose,[5]; [14],300 mg/kg
same,ED50,[5]; ip,80.8 mg/kg
same,TD50,[6]; ip,194.14 mg/kg
same,MES ED50,"[3]; ip, mice",42.31 mg/kg
same,PI values (in words),"[3]; ip, mice",higher PI values
same,anti-MES / anticonvulsant activity (in words),"[3]; ip, mice",good anti-MES activity
same,MES PI (protective index = TD50/ED50),"[3]; mouse, in vivo, ip",4.59
Cc1cc(C)cc(NC(=O)c2ccc(N)cc2)c1 [Example 10],minimal effective dose,[5]; [13],> 600 mg/kg
same,minimal effective dose,[5]; [14],> 600 mg/kg
same,anti-MES / anticonvulsant activity (in words),"[3]; ip, mice",good anti-MES activity
CC(C)c1ccccc1NC(=O)c1ccc(N)cc1 [Example 11],minimal effective dose,[5]; [13],600 mg/kg
same,TD50,[6]; ip,708.98 mg/kg
same,MES ED50,"[3]; ip, mice",81.52 mg/kg
same,PI values (in words),"[3]; ip, mice",highest PI values
same,MES PI (protective index = TD50/ED50),"[3]; mouse, in vivo, ip",8.70
Cc1cccc(C(C)C)c1NC(=O)c1ccc(N)cc1 [Example 12],minimal effective dose,[5]; [13],> 600 mg/kg
same,minimal effective dose,[5]; [14],> 600 mg/kg
same,rotorod toxicity at 600 mg/kg,[6],no rotorod toxicity
same,TD50,[6]; ip,> 1500.0 mg/kg
same,TD50,in vivo [11],1500 to 2000 mg/kg
same,MES ED50,"[3]; ip, mice",86.13 mg/kg
same,PI values (in words),"[3]; ip, mice",highest PI values
same,anti-MES / anticonvulsant activity (in words),"[3]; ip, mice",more potent
same,MES PI (protective index = TD50/ED50),"[3]; mouse, in vivo, ip",> 17.42
CCc1cccc(C(C)C)c1NC(=O)c1ccc(N)cc1 [Example 13],LD50,in vivo [4],< 600 mg/kg
same,minimal effective dose,[5]; [13],300 mg/kg
same,minimal effective dose,[5]; [14],> 600 mg/kg
same,TD50,[6]; ip,49.10 mg/kg
same,animals with rotorod toxicity at 30 mg/kg,[9]; 30 mg/kg,1 out of 4
same,MES ED50,"[3]; ip, mice",16.67 mg/kg
same,anti-MES / anticonvulsant activity (in words),"[3]; ip, mice",more potent
same,MES PI (protective index = TD50/ED50),"[3]; mouse, in vivo, ip",2.95
"Cc1cccc(C)c1NC(=O)c1cccc(N)c1 [II-1, 3-amino-N-(2,6-dimethylphenyl) benzamide]",TD50,in vivo [11],285 mg/kg
same,MES ED50,"[3]; ip, mice",13.48 mg/kg
same,MES PI (protective index = TD50/ED50),"[3]; mouse, in vivo, ip",21.11
"CCC1(c2ccccc2)C(=O)NC(=O)NC1=O [Phenobarbital, reference compound]",lethal dose (LD50),"ip, mice",264.70 mg/kg
same,ED50,[5]; ip,13.2 mg/kg
same,MES ED50,"[3]; ip, mice",21.78 mg/kg
O=C1NC(=O)C(c2ccccc2)(c2ccccc2)N1 [Phenytoin],plasma level at which ataxia is obvious,[12],30000 ng/mL
same,plasma level at which lethargy is apparent,[12],about 40 mcg/ml
same,plasma level at which nystagmus is seen,[12],around 20 mcg/ml
same,plasma level controlling seizures,[12],≥ 10 µg/mL
"CCCC(CCC)C(=O)O [Valproic Acid, reference compound]",LD50,in vivo [4],1100 mg/kg
same,ED50,[5]; ip,149 mg/kg
